Measured values: US11192913B2, “C-glycoside amine derivatives and methods of making” (The United States of America, as Represented by the …, priority 2020, dated 2021)
≈ marks a conversion by molar mass, not a printed value. Where two headings read alike, the source gives them in different places.

What was measured:
[1] = test system: B. cereus; conditions: Staron et al. 2018; cited from earlier work
[2] = test system: all gram positive organisms tested; conditions: against all gram positive organisms tested
Description: (§1) When surfactants are used in detergent formulations, antibiotic activity is an important trait. The antibiotic activity of the surfactants prepared from the saccharides glucose, maltose, and lactose, and 2-undecanone were measured against several microorganisms of interest in the food, human health, and agricultural areas. […] The CMC values for the β-C-glycoside 2-aminoundecanes were 0.1-5.5 mM.
(§2) Summary: β-C-glycoside ketone derivatives of saccharides glucose, lactose, and maltose were converted to amines via a reductive amination using 2 wt % Rh/HMS (Rh/C or Rh/Al2O3 can be used) in ammoniacal methanol under about 500 psi H2 (pressure can be about 350 psi). The amines were isolated and then these molecules were used as the amine in the reductive amination of 2-undecanone prepared from the seed oil of Cuphea. The resulting β-C-glycoside 2-aminoundecanes were characterized by MALDI-TOF mass spectrometry, 2D nmr, and CHN analyses. The detergency of the products was measured by fluorescence detection to measure the critical micelle concentration.

[3] = test system: Envinia amylovora; test: Antimicrobial activity; format: cell-based; conditions: gram negative Erwinia
Description: as §1, §2

[4] = test system: Escherichia coli; test: Antimicrobial activity; format: cell-based; conditions: gram negative Escherichia
Description: as §1, §2

[5] = test system: Streptococcus mutans; conditions: Watanabe et al. 2000; cited from earlier work
[6] = test system: Bacillus subtilis; conditions: Zhao et al. 2015; cited from earlier work
[7] = test system: Escherichia coli; conditions: Zhao et al. 2015; cited from earlier work

dodecanoyl lactose
MIC [1]: 5900 µM

CCCCCCCCCC(C)NC(C)C[C@@H]1O[C@H](CO)[C@@H](O)[C@H](O)[C@H]1O (some centres unmarked) [glucose derivative, Glucose C-glycoside 2-aminoundecane]
minimum bactericide concentration [2]: 620 µM (≈ 233 µg/mL) | minimum inhibitory concentration [2]: 310 µM (≈ 116 µg/mL) | MIC [3]: 620 µM (≈ 233 µg/mL) | MIC [4]: 620 µM (≈ 233 µg/mL)

Galactose laurate
MIC [5]: 140 µM

sucrose caprate
MIC [6]: 2500 µM | MIC [7]: 10000 µM
